# Laboratory results taken from patent US10017507B2, “Diaza-benzofluoranthrene compounds” (HARBIN PHARMACEUTICAL GROUP CO., LTD. GENERAL …, priority 2015, dated 2018).
# Target: T1, PDE1A (Homo sapiens, UniProt P54750)
# T1 construct: purchased SignalChem
# Experiment: In vitro detection of phosphodiesterase (PDE): PDE1A enzyme activity by fluorescence polarization immunoassay
# Format: biochemical
# Conditions: human-derived enzyme, cAMP or cGMP substrate; read-out: IC50s for PDE1
# Experimental: Test 1: In Vitro Detection of Phosphodiesterase (PDE)
# the enzyme activity of PDE1A was determined by detecting the production of AMP/GMP by fluorescence polarization immunoassay, wherein AlexaFluor 633 labeled AMP/GMP was used to replace AMP/GMP to bind with the antibody.
# Reaction buffer: 10 mM Tris-HCl, pH 7.5, 5 mM magnesium chloride, 0.01% Brij 35, 1 mM DTT and 1% DMSO;
# Enzyme substrate: […] cAMP or cGMP (Ca^2+-calmodulin acts as a cofactor of PDE1A)
# Detection reagent: Transcreener® AMP2/GMP2 antibody; AMP2/GMP2 AlexaFluor 633 tracer.
# Experimental Procedure and Method:
# 1. Human-derived enzyme (commercially available from SignalChem) to be tested and substrate were diluted with freshly prepared reaction buffer;
# 2. The enzyme solution (with a concentration of 3 pM) was added to the holes of the microplates;
# 3. A series of solutions of the compounds in 100% DMSO (with the desired concentrations) were added to the holes containing the enzyme solution by Echo550, and then the microplates were incubated for 10 minutes at room temperature;
# 4. The substrate solution was added to the holes containing the enzyme and compounds to start the reaction;
# 5. The microplates were incubated for 1 hour under room temperature and vibration;
# 6. The detection mixture (tracer and antibody in stop buffer) was added to stop the enzyme reaction, and the microplates were incubated for 90 minutes under vibration;
# 7. The equipment EnVision (PerkinElmer), Cy5 FP Ex FP 620, Em S-pol 688/P-pol 688, FP mirror D658fp/D688 was used to detect the reaction mixture, and Ex/Em 620/688 was used to detect the fluorescence polarization.
# In the Excel table, the enzyme activity corresponding to the FP signal was found on the AMP/GMP standard curve by reference to the DMSO negative control, and then was converted to product concentration (nM). GraphPad Prism was used to analyze and calculate the IC50 values.
row,Molecule,IC50 [µM]
1,"CC[C@@]12C=C(c3nc(C)ns3)n3c4c(c5ccccc53)CCN(CCC1)[C@H]42 [Example 39, 5-((4^1S,13aS)-13a-ethyl-2,3,4^1,5,6,13a-hexahydro-1H-indolo[3,2,1-de]pyrido[3,2,1-ij][1,5]naphthyridin-12-yl)-3-methyl-1,2,4-thiadiazole]",1 to 20
2,"CC[C@@]12C=C(c3cn4ccc(C(F)(F)F)cc4n3)n3c4c(c5ccccc53)CCN(CCC1)[C@H]42 [Example 44, (4^1S,13aS)-13a-ethyl-12(7-(trifluoromethyl)imidazo[1,2-a]pyridin-2-yl)-2,3,4^1,5,6,13a-hexahydro-1H-indolo[3,2,1-de]pyrido[3,2,1-ij][1,5]naphthyridine]",20 to 100
3,"CC[C@@]12C=C(c3nc(C4CC4)no3)n3c4c(c5ccccc53)CCN(CCC1)[C@H]42 [Example 35, 3-Cyclopropyl-5-((4^1S,13aS)-13a-ethyl-2,3,4^1,5,6,13a-hexahydro-1H-indolo[3,2,1-de]pyrido[3,2,1-ij][1,5]naphthyridin-12-yl)-1,2,4-oxadiazole]",1 to 20
4,"CC[C@@]12C=C(c3ncccc3C)n3c4c(c5ccccc53)CCN(CCC1)[C@H]42 [Example 13, (4^1S,13aS)-13a-ethyl-12-(3-methylpyridin-2-yl)-2,3,4^1,5,6,13a-hexahydro-1H-indolo[3,2,1-de]pyrido[3,2,1-ij][1,5]naphthyridine]",20 to 100
5,"CC[C@@]12C=C(c3ccc(C)nn3)n3c4c(c5ccccc53)CCN(CCC1)[C@H]42 [Example 9, (4^1S,13aS)-13a-ethyl-12-(6-methylpyridazin-3-yl)-2,3,4^1,5,6,13a-hexahydro-1H-indolo[3,2,1-de]pyrido[3,2,1-ij][1,5]naphthyridine]",1 to 20
6,"(4^1S,13aS)-13a-ethyl-N-(3-methoxylpropyl)-12-(3-methyl-1,2,4-oxadiazol-5-yl)-2,3,4,5,6,13a-hexahydro-1H-indolo[3,2,1-de]pyrido[3,2,1-ij][1,5]naphthyridin-7-sulfonamide [Example 84]",> 100
7,"CC[C@@]12C=C(c3cc(C)no3)n3c4c(c5ccccc53)CCN(CCC1)[C@H]42 [Example 47, 5-((4^1S,13aS)-13a-ethyl-2,3,4^1,5,6,13a-hexahydro-1H-indolo[3,2,1-de]pyrido[3,2,1-ij][1,5]naphthyridin-12-yl)-3-methylisoxazole]",1 to 20
8,"CC[C@@]12C=C(c3nnco3)n3c4c(c5ccccc53)CCN(CCC1)[C@H]42 [Example 15, 2-((4^1S,13aS)-13a-ethyl-2,3,4^1,5,6,13a-hexahydro-1H-indolo[3,2,1-de]pyrido[3,2,1-ij][1,5]naphthyridin-12-yl)-1,3,4-oxadiazole]",> 100
9,"CC[C@@]12C=C(c3nc(-c4ccc(F)cc4)no3)n3c4c(c5ccccc53)CCN(CCC1)[C@H]42 [Example 32, 5-((4S,13aS)-13a-ethyl-2,3,4^1,5,6,13a-hexahydro-1H-indolo[3,2,1-de]pyrido[3,2,1-ij][1,5]naphthyridin-12-yl)-3-(4-fluorophenyl)-1,2,4-oxadiazole]",> 100
10,"CC[C@@]12C=C(c3nc(C(C)C)no3)n3c4c(c5ccccc53)CCN(CCC1)[C@H]42 [Example 34, 5-((4S,13aS)-13a-ethyl-2,3,4^1,5,6,13a-hexahydro-1H-indolo[3,2,1-de]pyrido[3,2,1-ij][1,5]naphthyridin-12-yl)-3-isopropyl-1,2,4-oxadiazole]",1 to 20
11,"CC[C@@]12C=C(c3csc(N)n3)n3c4c(c5ccccc53)CCN(CCC1)[C@H]42 [Example 43, 4-((4^1S,13aS)-13a-ethyl-2,3,4^1,5,6,13a-hexahydro-1H-indolo[3,2,1-de]pyrido[3,2,1-ij][1,5]naphthyridin-12-yl)-thiazole-2-amine]",20 to 100
12,"CC[C@@]12C=C(/C=C/C(=O)O)n3c4c(c5ccccc53)CCN(CCC1)[C@H]42 [Example 5, (E)-3-((4^1S,13aS)-13a-ethyl-2,3,4^1,5,6,13a-hexahydro-1H-indolo[3,2,1-de]pyrido[3,2,1-ij][1,5]naphthyridin-12-yl)acrylic acid]",> 100
13,"CCOC(=O)/C=C/C1=C[C@]2(CC)CCCN3CCc4c(n1c1ccccc41)[C@@H]32 [Example 6, (E)-ethyl-3-((4^1S,13aS)-13a-ethyl-2,3,4^1,5,6,13a-hexahydro-1H-indolo[3,2,1-de]pyrido[3,2,1-ij][1,5]naphthyridin-12-yl)acrylate]",1 to 20
14,"CC[C@@]12C=C(c3nc(-c4ccncc4)no3)n3c4c(c5ccccc53)CCN(CCC1)[C@H]42 [Example 31, 5-((4^1S,13aS)-13a-ethyl-2,3,4^1,5,6,13a-hexahydro-1H-indolo[3,2,1-de]pyrido[3,2,1-ij][1,5]naphthyridin-12-yl)-3-(pyridin-4-yl)-1,2,4-oxadiazole]",1 to 20
15,"CC[C@@]12C=C(C3=N[C@@H](C)CO3)n3c4c(c5ccccc53)CCN(CCC1)[C@H]42 [Example 38, (S)-2-((4^1S,13aS)-13a-ethyl-2,3,4^1,5,6,13a-hexahydro-1H-indolo[3,2,1-de]pyrido[3,2,1-ij][1,5]naphthyridin-12-yl)-4-methyl-4,5-dihydrooxazole]",20 to 100
16,"CC[C@@]12C=C(c3nc(C(F)(F)F)no3)n3c4c(c5ccccc53)CCN(CCC1)[C@H]42 [Example 22, 5-((4^1S,13aS)-13a-ethyl-2,3,4^1,5,6,13a-hexahydro-1H-indolo[3,2,1-de]pyrido[3,2,1-ij][1,5]naphthyridin-12-yl)-3-trifluoromethyl-1,2,4-oxadiazole]",20 to 100

# Results, then the molecule that gave them:
row,IC50 [µM],Molecule
1,≤ 1,"CC[C@@]12C=C(c3nc(C)c(C(=O)N(C)C)o3)n3c4c(c5ccccc53)CCN(CCC1)[C@H]42 [Example 65, 2-((4^1S,13aS)-13a-ethyl-2,3,4^1,5,6,13a-hexahydro-1H-indolo[3,2,1-de]pyrido[3,2,1-ij][1,5]naphthyridin-12-yl)-N,N,4-trimethyloxazole-5-carboxamide]"
2,1 to 20,"CC[C@@]12C=C(c3nc(C)c(C(C)C)o3)n3c4c(c5ccccc53)CCN(CCC1)[C@H]42 [Example 54, 2-((4^1S,13aS)-13a-ethyl-2,3,4^1,5,6,13a-hexahydro-1H-indolo[3,2,1-de]pyrido[3,2,1-ij][1,5]naphthyridin-12-yl)-5-isopropyl-4-methyloxazole]"
3,20 to 100,"CC[C@@]12C=C(c3nc(C)no3)n3c4c(c5c(S(=O)(=O)N(C)C)cccc53)CCN(CCC1)[C@H]42 [Example 83, (4^1S,13aS)-13a-ethyl-N,N-dimethyl-12-(3-methyl-1,2,4-oxadiazol-5-yl)-2,3,4^1,5,6,13a-hexahydro-1H-indolo[3,2,1-de]pyrido[3,2,1-ij][1,5]naphthyridin-7-sulfonamide]"
4,1 to 20,"CC[C@@]12C=C(c3nc(C)c(C)o3)n3c4c(c5c(S(=O)(=O)NC)cccc53)CCN(CCC1)[C@H]42 [Example 73, (4^1S,13aS)-12-(4,5-dimethyloxazol-2-yl)-13a-ethyl-N-methyl-2,3,4^1,5,6,13a-hexahydro-1H-indolo[3,2,1-de]pyrido[3,2,1-ij][1,5]naphthyridin-7-sulfonamide]"
5,20 to 100,"CC[C@@]12C=C(c3nc(C)no3)n3c4c(c5cc(S(=O)(=O)N(C)C)ccc53)CCN(CCC1)[C@H]42 [Example 80, (4^1S,13aS)-13a-ethyl-N,N-dimethyl-12-(3-methyl-1,2,4-oxadiazol-5-yl)-2,3,4^1,5,6,13a-hexahydro-1H-indolo[3,2,1-de]pyrido[3,2,1-ij][1,5]naphthyridin-8-sulfonamide]"
6,20 to 100,"CC[C@@]12C=C(c3nc(C)no3)n3c4c(c5c(S(=O)(=O)NC)cccc53)CCN(CCC1)[C@H]42 [Example 82, (4^1S,13aS)-13a-ethyl-N-methyl-12-(3-methyl-1,2,4-oxadiazol-5-yl)-2,3,4^1,5,6,13a-hexahydro-1H-indolo[3,2,1-de]pyrido[3,2,1-ij][1,5]naphthyridin-7-sulfonamide]"
7,1 to 20,"CC[C@@]12C=C(c3nc(C)c(C(C)(C)O)o3)n3c4c(c5ccccc53)CCN(CCC1)[C@H]42 [Example 60, 2-(2-((4^1S,13aS)-13a-ethyl-2,3,4^1,5,6,13a-hexahydro-1H-indolo[3,2,1-de]pyrido[3,2,1-ij][1,5]naphthyridin-12-yl)-4-methyloxazol-5-yl)propan-2-ol]"
8,20 to 100,"CC[C@@]12C=C(c3nc(C)no3)n3c4c(c5ccc(S(=O)(=O)N(C)C)cc53)CCN(CCC1)[C@H]42 [Example 77, (4^1S,13aS)-13a-ethyl-N,N-dimethyl-12-(3-methyl-1,2,4-oxadiazol-5-yl)-2,3,4^1,5,6,13a-hexahydro-1H-indolo[3,2,1-de]pyrido[3,2,1-ij][1,5]naphthyridin-9-sulfonamide]"
9,1 to 20,"CC[C@@]12C=C(c3nc(C)c(C)o3)n3c4c(c5cc(S(=O)(=O)N(C)C)ccc53)CCN(CCC1)[C@H]42 [Example 71, (4^1S,13aS)-12-(4,5-dimethyloxazol-2-yl)-13a-ethyl-N,N-dimethyl-2,3,4^1,5,6,13a-hexahydro-1H-indolo[3,2,1-de]pyrido[3,2,1-ij][1,5]naphthyridin-8-sulfonamide]"
